Laboratory results from ChEMBL document CHEMBL3507680, “University of Dundee, Gates Library screen for HepG2 cell viability”.

Test: Human HepG2 cell viability assay in 384 well format
Assay type: toxicity, cell-based
Design: dose 125 nL, time 70.5 hour; cytotoxicity at 70.5 h: concentration not given beside the values
Settings: HepG2 cells, read-out: Inhibition

Cc1sc(N)nc1-c1ccc(Cl)cc1
cytotoxicity at 70.5 h: 15.4%

CC1(C)CN(CC(F)(F)F)CCN1CC(N)=O
cytotoxicity at 70.5 h: -3.8%

CN(Cc1cncs1)C1CCN(C(=O)OC(C)(C)C)CC1
cytotoxicity at 70.5 h: -8.3%

Cc1cc(N2CCC(NC(=O)CCC3CCCO3)CC2)nc(C)n1 (stereo not given)
cytotoxicity at 70.5 h: -5.62%

Cc1nc(C)c(CN(C)C2CCN(C(=O)OC(C)(C)C)CC2)s1
cytotoxicity at 70.5 h: -7.19%

CC(C(=O)NCCc1cccs1)N1CCC(n2ccnc2)CC1 (stereo not given)
cytotoxicity at 70.5 h: -1.16%

COCC(NC(=O)c1ccc(O)nc1)c1ccc(C)o1 (stereo not given)
cytotoxicity at 70.5 h: 0.572%

CN(CCOCC1CC1)C(=O)Cn1cccc(C(F)(F)F)c1=O
cytotoxicity at 70.5 h: -1.06%

CCCN(CCC)S(=O)(=O)c1cc(NC(C)=O)ccc1C
cytotoxicity at 70.5 h: 4.44%

Cc1nn(C)c(C)c1CC(=O)NCc1ccnc(OC2CCCC2)c1
cytotoxicity at 70.5 h: -5.31%

COc1ccnc(N(C)Cc2ccco2)n1
cytotoxicity at 70.5 h: 10.4%

CC(C)(C)OCCN(Cc1cccc(O)c1)C1CCC(O)CC1 (stereo not given)
cytotoxicity at 70.5 h: -3.74%

CN(C(=O)CN(Cc1cccc(O)c1)C1CCC(O)CC1)C1CC1 (stereo not given)
cytotoxicity at 70.5 h: -6.65%

CN1CCN(CCCN(C)S(=O)(=O)CC2CCCCC2)CC1
cytotoxicity at 70.5 h: -3.5%

C[S+]([O-])c1ccc(NC(=O)CC2=CCCCC2)cc1 (stereo not given)
cytotoxicity at 70.5 h: -3.55%

COc1ccc(CN2CCNC(=O)CC2)cc1SC(F)(F)F
cytotoxicity at 70.5 h: 1.64%

CCOCC(=O)NCC(C)(O)c1cc(C)oc1C (stereo not given)
cytotoxicity at 70.5 h: -0.44%

CC(Cn1ccnc1)NC(=O)NCCN1CCc2ccccc2C1 (stereo not given)
cytotoxicity at 70.5 h: 0.814%

CC(Cn1cccn1)NC(=O)NCCCN1CCCCCC1=O (stereo not given)
cytotoxicity at 70.5 h: 0.306%

CCOC1CCN(CCc2nc(-c3cccc(Cl)c3)no2)CC1
cytotoxicity at 70.5 h: 16.1%

COCC(O)CN(C)C(=O)c1cccc(-c2csc(C)n2)c1 (stereo not given)
cytotoxicity at 70.5 h: 1.21%

Cc1cc(C(C)(O)CNC(=O)c2ccc(Br)o2)c(C)o1 (stereo not given)
cytotoxicity at 70.5 h: -0.275%

CCOc1ccc(CN2C(=O)CC(CC)(CC)C2=O)nc1
cytotoxicity at 70.5 h: 0.923%

Cc1cc(C(C)(O)CNC(=O)CCOCC(C)C)c(C)o1 (stereo not given)
cytotoxicity at 70.5 h: 0.738%

CCCN(C)S(=O)(=O)NC(=O)c1ccc(CC)o1
cytotoxicity at 70.5 h: 0.645%

CC(Cn1cccn1)NC(=O)NCCN1CCc2ccccc2C1 (stereo not given)
cytotoxicity at 70.5 h: 0.199%

CCc1cc(CNC(=O)N2Cc3ccccc3N(C)CC2C)[nH]n1 (stereo not given)
cytotoxicity at 70.5 h: -0.192%

CC(C(=O)NC(C)(C)C)N1CCC(C(=O)Nc2cnccn2)CC1 (stereo not given)
cytotoxicity at 70.5 h: -8.75%

Cc1cccnc1NC(=O)C1CCN(C(C)C(=O)NC(C)(C)C)CC1 (stereo not given)
cytotoxicity at 70.5 h: -10.6%

Cc1noc(C)c1CN(C)C(=O)NC(C)c1cccs1 (stereo not given)
cytotoxicity at 70.5 h: 7.59%

CCc1ccc(-c2nn3c(nc2=O)-c2ccccc2NC3C(=O)O)cc1 (stereo not given)
cytotoxicity at 70.5 h: -10.4%

COc1cc(C)c(C(C)Nc2ncc(C(N)=O)cc2Cl)cc1OC (stereo not given)
cytotoxicity at 70.5 h: -12.8%

O=C(CSc1nnc[nH]1)NCc1cccs1
cytotoxicity at 70.5 h: -2.74%

Cc1ccc(NC(=O)CS(=O)(=O)NC2CCC(C)CC2)nc1 (stereo not given)
cytotoxicity at 70.5 h: -2.47%

CC1CCC(NS(=O)(=O)CC(=O)Nc2ccc(N3CCCC3)cn2)CC1 (stereo not given)
cytotoxicity at 70.5 h: -5.53%

CC(CNS(=O)(=O)CCCC#N)c1ccsc1 (stereo not given)
cytotoxicity at 70.5 h: -3.18%

Cc1csc(CN(C)C(=O)Nc2cc(F)cc(N3CCCC3)c2)n1
cytotoxicity at 70.5 h: -11.9%

COc1ccc(Br)cc1CCC(=O)N1CCC(O)CC1
cytotoxicity at 70.5 h: -4.79%

CC1CCC(NS(=O)(=O)CC(=O)Nc2ccccc2N2CCCC2)CC1 (stereo not given)
cytotoxicity at 70.5 h: -1.66%

Cc1cc(NC(=O)Cc2ccccc2O)c[nH]c1=O
cytotoxicity at 70.5 h: -13.3%

Cc1cc(NC(=O)Cc2ccccc2O)cnc1N1CCCCC1
cytotoxicity at 70.5 h: -12.3%

COc1c(CNC2(c3ccc(Cl)cc3)CCC2)c(C)nn1C
cytotoxicity at 70.5 h: 5.64%

CCOCCC(=O)N(C)c1ccc(F)c(Cl)c1
cytotoxicity at 70.5 h: -7.99%

COc1ccc(Br)cc1CC(=O)N1CCCC1
cytotoxicity at 70.5 h: -5.85%

Cc1cccc(C(C)CNS(=O)(=O)CCCC#N)c1 (stereo not given)
cytotoxicity at 70.5 h: -8.11%

Cc1[nH]ncc1C(=O)N(CC(C)C)CC(O)c1ccc(F)cc1 (stereo not given)
cytotoxicity at 70.5 h: 14.2%

COc1cccc(COCC(=O)NC(C)c2nnc3n2CCC3)c1 (stereo not given)
cytotoxicity at 70.5 h: 1.6%

CCN(C(=O)c1ccc2c(c1)OCO2)C1CC(=O)NC1=O (stereo not given)
cytotoxicity at 70.5 h: -6.4%

O=C(Nc1ccccc1F)C1CSCN1C(=O)CCc1ccco1 (stereo not given)
cytotoxicity at 70.5 h: -8.52%

COc1cc(-n2cccc2)c(Cl)cc1C(=O)NS(C)(=O)=O
cytotoxicity at 70.5 h: 6%

CS(=O)(=O)NCCNC(=O)Cc1ccc(Br)s1
cytotoxicity at 70.5 h: -3.17%

c1csc(N2CCN(c3nccn4cnnc34)CC2)n1
cytotoxicity at 70.5 h: -3.57%

CC(C)N(C(=O)CCc1ccco1)C1CCOCC1
cytotoxicity at 70.5 h: -9.28%

COc1ccc(CCC(=O)N(C(C)C)C2CCOCC2)cc1
cytotoxicity at 70.5 h: -6.93%

Cc1ncc(CNC(=O)NC2CCN(C3CCCC3)CC2)s1
cytotoxicity at 70.5 h: -6.29%

Cc1sc(CS(C)(=O)=O)nc1-c1ccc(Cl)cc1
cytotoxicity at 70.5 h: 14.3%

Cc1nc(S(=O)(=O)N2CCSC3(CCCCC3)C2)cn1C
cytotoxicity at 70.5 h: -4%

Cc1nc(S(=O)(=O)N2CCC3(CCCCC3)C2)cn1C
cytotoxicity at 70.5 h: -1.45%

CCc1cnc(CNC(=O)NC2CCN(C3CCCC3)CC2)s1
cytotoxicity at 70.5 h: 14%

CC(C)CSCCCNC(=O)C1CCOCC1
cytotoxicity at 70.5 h: -5.98%

Cc1sc(CNS(N)(=O)=O)nc1-c1ccc(Cl)cc1
cytotoxicity at 70.5 h: -2.62%

O=C(c1c(O)cnc2ccccc12)N1CCCSCC1
cytotoxicity at 70.5 h: -1.19%

CC(C)CN(CC(O)c1ccc(F)cc1)C(=O)c1csnn1 (stereo not given)
cytotoxicity at 70.5 h: 14.1%

O=C(c1ccc(Br)cc1F)N1CCc2ccncc21
cytotoxicity at 70.5 h: 3.99%

CCN(C(=O)CCc1ccc2[nH]ccc2c1)C1CC(=O)NC1=O (stereo not given)
cytotoxicity at 70.5 h: -2.25%

Cn1cnc2cc(C(=O)NS(=O)(=O)c3ccccc3Cl)ccc21
cytotoxicity at 70.5 h: -2.15%

Cc1sc(CN)nc1-c1ccccc1
cytotoxicity at 70.5 h: -3.17%

Cc1ccc(NC(=O)N2CCCC(N(C)C)C2)c(Br)c1 (stereo not given)
cytotoxicity at 70.5 h: -3.97%

Cc1cc(C(=O)N(CC(C)C)CC(O)c2ccc(F)cc2)[nH]n1 (stereo not given)
cytotoxicity at 70.5 h: -2.51%

COc1ccc(C(C)NCc2cnnn2C)cc1F (stereo not given)
cytotoxicity at 70.5 h: 2.17%

CC(C)CN(CC(O)c1ccc(F)cc1)C(=O)c1cc[nH]n1 (stereo not given)
cytotoxicity at 70.5 h: -3.9%

CC(C)CSCCCNC(=O)C1CCC1
cytotoxicity at 70.5 h: -2.26%

CC(C)CN(CC(O)c1ccc(F)cc1)C(=O)c1cnsn1 (stereo not given)
cytotoxicity at 70.5 h: -3.42%

CCc1nnc2n1CCN(Cc1nc3c(F)cccc3[nH]1)C2
cytotoxicity at 70.5 h: 11.8%

CC(=O)N(C)Cc1ccccc1NC(=O)N(C)CCc1cccs1
cytotoxicity at 70.5 h: -3.06%

COc1ccccc1CNC(C)c1cnc2cc(C)nn2c1C (stereo not given)
cytotoxicity at 70.5 h: -1.5%

Cc1nonc1NC(=O)c1ccc(F)c(COCC2CC2)c1
cytotoxicity at 70.5 h: 11.9%

COC(C)(C)c1noc(C2(C#N)CCCC2)n1
cytotoxicity at 70.5 h: -1.33%

O=C(Nc1ccccc1OC(F)(F)F)C1CCS(=O)(=O)C1 (stereo not given)
cytotoxicity at 70.5 h: -9.01%

c1csc(N2CCN(Cc3nnnn3C3CC3)CC2)n1
cytotoxicity at 70.5 h: 0.58%

CC(NC(=O)N1CCN(c2ncccn2)CC1)c1ccc(C#N)cc1 (stereo not given)
cytotoxicity at 70.5 h: -4.87%

COc1ccc2c(c1)CCCN2C(=O)NCCc1cnn(C)c1
cytotoxicity at 70.5 h: -11.2%

COC(=O)N1CCN(CCCc2nnnn2-c2ccccc2)CC1
cytotoxicity at 70.5 h: 8.7%

CN(CCC(F)(F)F)Cc1nc2ccccc2c(=O)[nH]1
cytotoxicity at 70.5 h: -3.56%

O=C(Nc1ccccc1Oc1cccc(F)c1)C1CCS(=O)(=O)C1 (stereo not given)
cytotoxicity at 70.5 h: -5.38%

Cc1n[nH]cc1CNCC(c1ccsc1)N(C)C (stereo not given)
cytotoxicity at 70.5 h: -7.79%

Cn1cc(C(=O)N2C[C@@H]3CN(S(C)(=O)=O)CCO[C@@H]3C2)cn1
cytotoxicity at 70.5 h: -0.664%

CN1Cc2ccccc2CC2(CCN(C(=O)N3CCOCC3)CC2)C1=O
cytotoxicity at 70.5 h: 24.7%

CCN1CCNC(=O)C12CCN(C(=O)Cc1ccsc1)CC2
cytotoxicity at 70.5 h: 2.23%

COc1ccc(S(=O)(=O)N2C[C@@H]3CN(C)CCO[C@@H]3C2)cc1
cytotoxicity at 70.5 h: -4.18%

COCCn1c2c(ccc1=O)CCN(C(=O)CC1CC1)CC2
cytotoxicity at 70.5 h: -2.25%

CC(=O)N1CC[C@H]2OCC[C@@H](C(=O)Nc3cccnc3C)[C@@H]2C1
cytotoxicity at 70.5 h: -5.24%

CC(C)NC(=O)N1CCC2(CC1)Cc1ccccc1CN(C)C2=O
cytotoxicity at 70.5 h: -2.79%

N#Cc1ccc(C(=O)N2CCc3c(COCC4CC4)cncc3C2)cc1
cytotoxicity at 70.5 h: -5.21%

COCCNC(=O)C[C@@H]1COC[C@H]2CN(C(=O)C3CCOCC3)C[C@@H]12
cytotoxicity at 70.5 h: 1.49%

O=C(c1ccoc1)N1CCO[C@@H]2CNC[C@@H]21
cytotoxicity at 70.5 h: -1.42%

O=C(CC1CC1)N[C@@H]1CN(C(=O)c2ccoc2)C[C@@H]2CCCO[C@@H]21
cytotoxicity at 70.5 h: -12.7%

COc1cc(N2CCC3(CC(=O)N(Cc4csc(C)n4)C3)C2)ncn1 (stereo not given)
cytotoxicity at 70.5 h: -6.14%

Cc1occc1C(=O)N1C[C@@H]2CCCO[C@@H]2[C@H](NC(=O)CC2CC2)C1
cytotoxicity at 70.5 h: -7.56%

Cc1ccc(C(CNCc2c[nH]nc2C)N(C)C)cc1 (stereo not given)
cytotoxicity at 70.5 h: 11.2%

CCc1ccc(CN2C[C@H](OCC(=O)N(C)C)[C@H]3COC[C@H]32)o1
cytotoxicity at 70.5 h: -0.34%

O=C1CCCN1Cc1nnc2n1CCCN(Cc1ccco1)C2
cytotoxicity at 70.5 h: -0.266%

CCc1ccc(CN2C[C@H](OC)[C@H]3COC[C@H]32)o1
cytotoxicity at 70.5 h: -0.659%

CCS(=O)(=O)N1Cc2[nH]nc(COCc3cccnc3)c2C1
cytotoxicity at 70.5 h: -2.23%

O=C(c1cscn1)N1CC[C@@H]2[C@@H]1CCN2C1CCOC1 (stereo not given in full)
cytotoxicity at 70.5 h: -1.49%

CO[C@H]1CCN(Cc2ccoc2)C[C@@H]1Cc1ccccc1
cytotoxicity at 70.5 h: 20.5%

CO[C@@H]1CCN(Cc2ccoc2)C[C@@H]1Cc1ccccc1
cytotoxicity at 70.5 h: 1.1%

COc1ccc(C[C@H]2CN(Cc3ccoc3)CC[C@@H]2OC)cc1
cytotoxicity at 70.5 h: -2.46%

COCCNC(=O)C[C@@H]1COC[C@H]2CN(CC3CCOCC3)C[C@@H]12
cytotoxicity at 70.5 h: 1.35%

Fc1cnc(N2CCN3C[C@H](Oc4cncnc4)C[C@H]3C2)nc1
cytotoxicity at 70.5 h: 5.05%

CC(C)CN1CCC(N2CCC(C(=O)N(C)C)CC2)CC1
cytotoxicity at 70.5 h: 3.98%

CN1CCO[C@@H]2CN(S(=O)(=O)c3cccnc3)C[C@@H]2C1
cytotoxicity at 70.5 h: 2.04%

Cc1ccc(O[C@@H]2C[C@H]3CN(c4ncc(F)cn4)CCN3C2)cc1
cytotoxicity at 70.5 h: -0.913%

Cc1cccc(CNC2CC3(CCN(CCO)CC3)c3ccccc32)n1 (stereo not given)
cytotoxicity at 70.5 h: 2.24%

Fc1cnc(N2CCN3C[C@H](Oc4cccnc4)C[C@H]3C2)nc1
cytotoxicity at 70.5 h: -3.94%
